# According to PMC11489250, “Optimized methods for measuring competitive binding of chemical substances to thyroid hormone distributor proteins transthyretin and thyroxine binding globulin” (Archives of Toxicology, 2024):
# Like-named read-outs stand apart in the source and are kept apart here.
# What was measured:
# Human TTR = molecular target: T1, Human TTR (Homo sapiens, UniProt P02766); experiment: Optimized competitive TTR-binding assay with FITC-T4 (fluorescence intensity readout)
# T1 construct: Transthyretin (prealbumin, TTR) >95% from human plasma; purchased Sigma Aldrich (Zwijndrecht, The Netherlands); host or cells: human plasma
# Description: All TTR-binding experiments were performed in black 96-well polystyrene nonbinding plates. Experimental wells and background wells were prepared in triplicate per plate. […] Fluorescence intensity (FI) was measured at λex = 485 ± 20 nm and λem = 528 ± 20 nm (CLARIOstar Plus microplate reader, BMG LABTECH).
# To test the effect of the change in temperature and incubation time, a saturation experiment (N = 3, n = 3) was performed in Tris–HCl buffer (0.1 M Tris (Thermo Scientific, Rockford, USA), 0.1 M NaCl (Merck KGaA, Darmstadt, Germany), 1 mM EDTA (VWR International, B.V. Amsterdam, The Netherlands); pH 8.0). […] Two 96-well plates were prepared at the same time. After shaking for 5 min on a plate shaker, one prepared plate was incubated on ice (at 4 °C) and another plate was incubated at room temperature (22 °C). For both plates the fluorescence was measured at different time points: 5 min, 15 min, 60 min and 120 min.
# First, 48 µL Tris–HCl buffer (pH 8.0) was pipetted to the wells, followed by 2 µL of the compound (in DMSO). […] Final solvent (DMSO) concentrations in all conditions amounted to 1%. All plates were shaken for 5 min on a plate shaker, followed by an incubation for 15 min at room temperature. The standard operation procedure (SOP) is provided in Supplementary Information file (Section 3).
# Calculations of the ICX, Kd and Ki values of TTR-binding assays are described in the Supplementary Information file (Section 3).
# 3.7.5 The competitive TTR binding screening assay
# 3.7.8 Processing data to determine IC50 and calculate Ki value
# [1] = molecular target: T2, thyroxine-binding globulin (TBG) (Homo sapiens, UniProt P05543); experiment: Competitive TBG-binding assay with FITC-T4 (fluorescence polarization readout)
# T2 construct: purchased Bio-rad Laboratories, Inc. (Veenendaal, The Netherlands)
# T2 sequence (P05543 21-415): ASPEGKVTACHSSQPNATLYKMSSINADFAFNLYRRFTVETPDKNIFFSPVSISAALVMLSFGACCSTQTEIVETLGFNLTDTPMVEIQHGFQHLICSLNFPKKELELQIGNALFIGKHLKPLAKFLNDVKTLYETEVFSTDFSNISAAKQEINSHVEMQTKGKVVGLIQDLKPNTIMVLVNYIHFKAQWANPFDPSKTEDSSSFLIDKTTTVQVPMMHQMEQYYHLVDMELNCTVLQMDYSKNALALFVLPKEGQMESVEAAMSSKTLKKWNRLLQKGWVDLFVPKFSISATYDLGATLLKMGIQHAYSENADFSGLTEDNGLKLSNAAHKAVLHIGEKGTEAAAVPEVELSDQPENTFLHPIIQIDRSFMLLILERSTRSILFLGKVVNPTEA
# Description: Prepared plates were first shaken for 5 min and then incubated for 15 min at room temperature before being analysed by the microplate reader at FP mode (CLARIOstar Plus, BMG LABTECH).
# Accordingly, dilution series of all compounds were prepared in DMSO. First, 24 µL Tris–HCl buffer was pipetted to the wells, followed by 1 µL of the compound stock solution. […] Solvent (DMSO) concentrations in all conditions were 1%. The plates were shaken for 5 min on a plate shaker, followed by an incubation for 15 min at room temperature.
# The adjusted polarization was set to a reference value of 35 mP. The adjustment gain values ranged from 1900 to 2200. The plate layout of TBG-binding assay is provided in Supplementary Information file (Section 4).
# For the competitive TBG-binding experiments, concentration–response curves were fitted:2 r=rmin+rmax-rmin/1+IC50/X^HillSlope with rmin and rmax being the minimum and maximum anisotropy values, respectively. X is the concentration of added competitor. Equations that were used for the calculation of the ICX and Ki values in the TTR-binding assays (Supplementary Information, Section 3) were also used to determine the ICX and Ki values in TBG-binding assays without any changes, respectively. The single Kd, IC20, IC50 and Ki were determined based on replicates (n) in each experiment, and then the average and confidence intervals were determined based on the Kd, IC20, IC50 and Ki values from sperate experiments (N).
# Alternatively, another approach to determine ICX, Kd and Ki values based on a theoretical model of ligand–protein binding biochemistry was taken as described in detail in the Supplementary Information file (Section 5). For this approach, R was used to fit the model to the data. The results obtained from the two approaches were compared in Section 3.4.
# S5.2 Ki and IC50 estimation
# Recombinant TTR = system: Recombinant TTR; set-up: method as in Marchesini et al. [2006]; conditions: highest concentration tested 10 µM; ref Marchesini et al. [2006]; cited from earlier work
# TTR = conditions: calculated by Ki = 1/binding constant; ref Cao et al. [2011]; read-out: TTR literature Ki; cited from earlier work
# TBG [2] = conditions: calculated by Ki = 1/binding constant; ref Cao et al. [2011]; read-out: TBG literature Ki; cited from earlier work
# TBG [3] = system: TBG; set-up: method as in Marchesini et al. [2006]; conditions: highest concentration tested 10 µM; ref Marchesini et al. [2006]; cited from earlier work
# [4] = T4EQi = highest human blood concentration x T4-REPi
smiles,measurement,setting,value
"CC(C)(c1ccc(O)cc1)c1ccc(O)cc1 [BPA, bisphenol-A]",IC20,"Human TTR; 110 nM FITC-T4, 30 nM TTR, RT, 15 min, average [95% CI], read-out: TTR IC20",14.7 µM
same,IC50,"Human TTR; 110 nM FITC-T4, 30 nM TTR, RT, 15 min, average [95% CI], read-out: TTR IC50",63.1 µM
same,Ki,"Human TTR; 110 nM FITC-T4, 30 nM TTR, RT, 15 min, derived from IC20, average [95% CI], read-out: TTR Ki",32.1 µM
same,"Relative potency compared to T4 (T4-REP), TTR-binding assay",Human TTR; T4-REPi = IC20(T4)/IC20(i),0.002
same,T4EQ concentration (TTR binding),Human TTR; [4],0.16 nM
same,Contribution to T4EQ concentration (TTR binding),Human TTR; mixture of highest human blood concentrations of five model compounds,0.8%
same,Ki,"[1]; 5 nM FITC-T4, 10 nM TBG, RT, 15 min, derived from IC20, descriptive model (Graphpad), average [95% CI], read-out: TBG Ki",16.8 µM
same,IC50,"[1]; 5 nM FITC-T4, 10 nM TBG, RT, 15 min, descriptive model (Graphpad), average [95% CI]",172 µM
same,IC20,"[1]; 5 nM FITC-T4, 10 nM TBG, RT, 15 min, descriptive model (Graphpad), average [95% CI], read-out: TBG IC20",32.6 µM
same,IC20,"[1]; 5 nM FITC-T4, 10 nM TBG, RT, theoretical model in R, average [95% CI], read-out: TBG IC20, theoretical model",35.7 µM
same,Ki,"[1]; 5 nM FITC-T4, 10 nM TBG, RT, theoretical model in R, average [95% CI], read-out: TBG Ki values, theoretical model",18.4 µM
same,"Relative potency compared to T4 (T4-REP), TBG-binding assay",[1]; T4-REPi = IC20(T4)/IC20(i),0.0003
same,T4EQ concentration (TBG binding),[1]; [4],0.023 nM
same,Contribution to T4EQ concentration (TBG binding),"[1]; mixture of highest human blood concentrations of TBBPA, triclosan and BPA",1.1%
same,competitive binding to TTR (in words),Recombinant TTR,no competitive binding
same,Ki,TTR,3.23 µM
same,Ki,TBG [2],1700 nM
same,competitive binding to TBG (in words),TBG [3],no competitive binding
